Reference: the supplement of paper PMC10627819

What was measured:
B. subtilis 168 [1] = assay: fitness (endpoint OD595 vs no drug) (fraction); higher = more growth
Summary of the method: (§1)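 Fitness expresses the optical density reached at the stationary-phase transition as a fraction of the robust mean of no-drug control wells. It is capped at 1. Measurements were OD595 every 30 min for 14 h at 37 °C after inoculation of 384-well plates at OD595 0.01 (30 µl, or 55 µl for S. pneumoniae), minus the first reading.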

S. aureus Newman [2] = assay: as above
Summary of the method: as §1

S. pneumoniae D39V [3] = assay: as above
Summary of the method: as §1

B. subtilis 168 [4] = assay: Bliss interaction score (quartile over a dose matrix) (fitness difference); higher = more antagonism (negative = synergy)
Summary of the method: (§2)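 The Bliss score is observed minus expected fitness under the product model, reported as quartiles over technical, biological and donor/recipient replicates. Fitness is the OD595 at entry into stationary phase divided by the plate's robust no-drug mean and capped at 1. Single-drug fitness was inferred from combination data.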

S. aureus DSM 20231 = assay: as above
Summary of the method: as §2

S. aureus Newman [5] = assay: as above
Summary of the method: as §2

S. pneumoniae D39V [6] = assay: as above
Summary of the method: as §2
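Wherever Bliss interaction score (quartile over a dose matrix) is given: first quartile when negative (synergy) and third quartile when positive (antagonism).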

CN[C@@H]1[C@H](O)[C@H](NC)[C@H]2O[C@@]3(O)C(=O)C[C@@H](C)O[C@H]3O[C@@H]2[C@H]1O [Spectinomycin] + CN(C)c1cc(NC(=O)CNC(C)(C)C)c(O)c2c1C[C@H]1C[C@H]3[C@H](N(C)C)C(O)=C(C(N)=O)C(=O)[C@@]3(O)C(O)=C1C2=O [Tigecycline]
fitness
Details	first compound 2 µg/mL	first compound 4 µg/mL	first compound 8 µg/mL	first compound 16 µg/mL
B. subtilis 168 [1], partner 0.039 µg/mL	0.976	≥ 1	0.978	–
B. subtilis 168 [1], partner 0.078 µg/mL	0.959	0.968	0.927	–
B. subtilis 168 [1], partner 0.156 µg/mL	1	≥ 1	0.889	–
S. aureus Newman [2], partner 0.039 µg/mL	–	0.912	0.918	0.904
S. aureus Newman [2], partner 0.078 µg/mL	–	0.954	0.928	0.908
S. aureus Newman [2], partner 0.156 µg/mL	–	0.938	0.961	0.929
S. pneumoniae D39V [3], partner 0.65 µg/mL	–	0.951	0.896	0.747
S. pneumoniae D39V [3], partner 1.3 µg/mL	–	0.981	0.905	0.788
S. pneumoniae D39V [3], partner 2.6 µg/mL	–	0.941	0.896	0.761

fitness, one replicate
Details	partner 0.039 µg/mL	partner 0.078 µg/mL	partner 0.125 µg/mL	partner 0.156 µg/mL	partner 0.25 µg/mL	partner 0.5 µg/mL
B. subtilis 168 [1], first compound 2 µg/mL	–	–	≥ 1	–	0.994	0.937
B. subtilis 168 [1], first compound 4 µg/mL	–	–	≥ 1	–	0.944	≥ 1
B. subtilis 168 [1], first compound 8 µg/mL	–	–	0.941	–	0.931	≥ 1
S. aureus Newman [2], first compound 32 µg/mL	0.592	0.585	–	0.603	–	–
S. aureus Newman [2], first compound 64 µg/mL	0.105	0.0894	–	0.1	–	–

Details	Bliss interaction score
B. subtilis 168 [4]	0.043
S. aureus DSM 20231	-0.0602
S. aureus Newman [5]	0.0622
S. pneumoniae D39V [6]	0.0451

CN[C@@H]1[C@H](O)[C@H](NC)[C@H]2O[C@@]3(O)C(=O)C[C@@H](C)O[C@H]3O[C@@H]2[C@H]1O [Spectinomycin] + CN[C@@H]1[C@H](O[C@H]2[C@H](O[C@H]3[C@H](O)[C@@H](O)[C@H](N=C(N)N)[C@@H](O)[C@@H]3N=C(N)N)O[C@@H](C)[C@]2(O)C=O)O[C@@H](CO)[C@H](O)[C@H]1O [Streptomycin]
fitness
Details	first compound 2 µg/mL	first compound 4 µg/mL	first compound 8 µg/mL	first compound 16 µg/mL
B. subtilis 168 [1], partner 2 µg/mL	0.928	0.973	0.894	–
B. subtilis 168 [1], partner 4 µg/mL	–	–	0.623	–
B. subtilis 168 [1], partner 8 µg/mL	0.148	0.0533	0.0588	–
S. aureus Newman [2], partner 1 µg/mL	–	0.956	0.943	0.906
S. aureus Newman [2], partner 2 µg/mL	–	0.926	0.975	–
S. pneumoniae D39V [3], partner 2 µg/mL	–	0.946	0.89	–
S. pneumoniae D39V [3], partner 4 µg/mL	–	0.952	0.878	0.83
S. pneumoniae D39V [3], partner 8 µg/mL	–	0.921	0.89	0.822

one replicate
Details	fitness
S. aureus Newman [2], first compound 16 µg/mL, partner 8 µg/mL	0.0211
S. aureus Newman [2], first compound 32 µg/mL, partner 2 µg/mL	0.455
S. aureus Newman [2], first compound 32 µg/mL, partner 4 µg/mL	0.342
S. aureus Newman [2], first compound 32 µg/mL, partner 8 µg/mL	0.0569
S. aureus Newman [2], first compound 64 µg/mL, partner 2 µg/mL	0.0619
S. aureus Newman [2], first compound 64 µg/mL, partner 4 µg/mL	0.0473
S. aureus Newman [2], first compound 64 µg/mL, partner 8 µg/mL	0.0327
S. pneumoniae D39V [3], first compound 4 µg/mL, partner 16 µg/mL	0.882
S. pneumoniae D39V [3], first compound 8 µg/mL, partner 16 µg/mL	0.842
S. pneumoniae D39V [3], first compound 16 µg/mL, partner 2 µg/mL	0.84
S. pneumoniae D39V [3], first compound 16 µg/mL, partner 16 µg/mL	0.705

Details	Bliss interaction score
B. subtilis 168 [4]	0.0835
S. aureus DSM 20231	0.126
S. aureus Newman [5]	0.0625
S. pneumoniae D39V [6]	0.0931

CN[C@@H]1[C@H](O[C@H]2[C@H](O[C@H]3[C@H](O)[C@@H](O)[C@H](N=C(N)N)[C@@H](O)[C@@H]3N=C(N)N)O[C@@H](C)[C@]2(O)C=O)O[C@@H](CO)[C@H](O)[C@H]1O [Streptomycin] + CC1=C\[C@@H](O)CC(=O)Cc2nc(co2)C(=O)N2CCC=C2C(=O)O[C@H](C(C)C)[C@H](C)/C=C/C(=O)NC\C=C\1 [Virginiamycin M1]
fitness
Details	first compound 1 µg/mL	first compound 2 µg/mL	first compound 4 µg/mL	first compound 8 µg/mL
B. subtilis 168 [1], partner 0.0625 µg/mL	–	0.962	–	0.0325
B. subtilis 168 [1], partner 0.125 µg/mL	–	0.966	0.429	0.0265
B. subtilis 168 [1], partner 0.25 µg/mL	–	≥ 1	0.453	0.0334
S. aureus Newman [2], partner 0.0625 µg/mL	1	0.879	–	–
S. aureus Newman [2], partner 0.125 µg/mL	0.996	0.891	–	–
S. aureus Newman [2], partner 0.25 µg/mL	0.978	0.916	–	–
S. pneumoniae D39V [3], partner 0.5 µg/mL	–	0.977	0.998	0.931
S. pneumoniae D39V [3], partner 1 µg/mL	–	0.955	0.99	0.884
S. pneumoniae D39V [3], partner 2 µg/mL	–	0.917	0.944	0.921

fitness, one replicate
Details	partner 0.15 µg/mL	partner 0.3 µg/mL	partner 0.5 µg/mL	partner 1 µg/mL	partner 2 µg/mL
S. aureus Newman [2], first compound 2 µg/mL	–	–	0.804	0.911	0.812
S. aureus Newman [2], first compound 4 µg/mL	–	–	0.865	0.86	0.82
S. aureus Newman [2], first compound 8 µg/mL	–	–	0.811	0.845	0.708
S. pneumoniae D39V [3], first compound 2 µg/mL	0.928	0.912	–	–	–
S. pneumoniae D39V [3], first compound 4 µg/mL	0.925	0.929	–	–	–
S. pneumoniae D39V [3], first compound 8 µg/mL	0.917	0.941	–	–	–
S. pneumoniae D39V [3], first compound 16 µg/mL	–	–	0.866	0.844	0.776

Details	Bliss interaction score
B. subtilis 168 [4]	-0.124
S. aureus DSM 20231	-0.161
S. aureus Newman [5]	0.0782
S. pneumoniae D39V [6]	0.0533

CN[C@@H]1[C@H](O[C@H]2[C@H](O[C@H]3[C@H](O)[C@@H](O)[C@H](N=C(N)N)[C@@H](O)[C@@H]3N=C(N)N)O[C@@H](C)[C@]2(O)C=O)O[C@@H](CO)[C@H](O)[C@H]1O [Streptomycin] + CN(C)c1cc(NC(=O)CNC(C)(C)C)c(O)c2c1C[C@H]1C[C@H]3[C@H](N(C)C)C(O)=C(C(N)=O)C(=O)[C@@]3(O)C(O)=C1C2=O [Tigecycline]
fitness
Details	partner 0.039 µg/mL	partner 0.078 µg/mL	partner 0.156 µg/mL	partner 0.65 µg/mL	partner 1.3 µg/mL	partner 2.6 µg/mL
B. subtilis 168 [1], first compound 2 µg/mL	0.974	0.985	0.968	–	–	–
S. aureus Newman [2], first compound 1 µg/mL	0.94	0.986	0.971	–	–	–
S. aureus Newman [2], first compound 2 µg/mL	0.966	0.95	0.989	–	–	–
S. pneumoniae D39V [3], first compound 2 µg/mL	–	–	–	0.96	0.973	0.891
S. pneumoniae D39V [3], first compound 4 µg/mL	–	–	–	0.968	0.989	0.962
S. pneumoniae D39V [3], first compound 8 µg/mL	–	–	–	0.88	0.938	0.914

fitness, one replicate
Details	partner 0.125 µg/mL	partner 0.25 µg/mL	partner 0.5 µg/mL	partner 0.65 µg/mL	partner 1.3 µg/mL	partner 2.6 µg/mL
B. subtilis 168 [1], first compound 2 µg/mL	0.98	0.955	0.951	–	–	–
B. subtilis 168 [1], first compound 4 µg/mL	0.982	0.914	≥ 1	–	–	–
B. subtilis 168 [1], first compound 8 µg/mL	0.481	0.474	0.519	–	–	–
S. pneumoniae D39V [3], first compound 16 µg/mL	–	–	–	0.866	0.81	0.829

Details	Bliss interaction score
B. subtilis 168 [4]	0.145
S. aureus DSM 20231	0.064
S. aureus Newman [5]	0.0427
S. pneumoniae D39V [6]	0.0816

CN[C@@H]1[C@H](O[C@H]2[C@H](O[C@H]3[C@H](O)[C@@H](O)[C@H](N=C(N)N)[C@@H](O)[C@@H]3N=C(N)N)O[C@@H](C)[C@]2(O)C=O)O[C@@H](CO)[C@H](O)[C@H]1O [Streptomycin] + CN[C@H](CC(C)C)C(=O)N[C@H]1C(=O)N[C@@H](CC(N)=O)C(=O)N[C@H]2C(=O)N[C@H]3C(=O)N[C@H](C(=O)N[C@H](C(=O)O)c4cc(O)cc(O)c4-c4cc3ccc4O)[C@H](O)c3ccc(c(Cl)c3)Oc3cc2cc(c3O[C@@H]2O[C@H](CO)[C@@H](O)[C@H](O)[C@H]2O[C@H]2C[C@](C)(N)[C@H](O)[C@H](C)O2)Oc2ccc(cc2Cl)[C@H]1O [Vancomycin]
fitness
Details	first compound 1 µg/mL	first compound 2 µg/mL	first compound 4 µg/mL	first compound 8 µg/mL
S. aureus Newman [2], partner 0.1875 µg/mL	0.959	0.941	–	–
S. aureus Newman [2], partner 0.375 µg/mL	0.952	0.946	–	–
S. aureus Newman [2], partner 0.75 µg/mL	0.978	0.944	–	–
S. pneumoniae D39V [3], partner 0.03125 µg/mL	–	0.978	0.956	0.941
S. pneumoniae D39V [3], partner 0.0625 µg/mL	–	0.921	0.969	0.913
S. pneumoniae D39V [3], partner 0.125 µg/mL	–	0.942	0.942	–
S. pneumoniae D39V [3], partner 0.25 µg/mL	–	–	0.704	0.691
S. pneumoniae D39V [3], partner 0.5 µg/mL	–	–	0.0741	0.0434

fitness, S. pneumoniae D39V [3], one replicate
Details	partner 0.125 µg/mL	partner 0.25 µg/mL	partner 0.5 µg/mL
first compound 2 µg/mL	–	0.422	0.0318
first compound 16 µg/mL	0.825	0.112	0.0914

Details	Bliss interaction score
B. subtilis 168 [4]	-0.0393
S. aureus DSM 20231	0.0918
S. aureus Newman [5]	0.055
S. pneumoniae D39V [6]	0.088

CN[C@@H]1[C@H](O[C@H]2[C@H](O[C@H]3[C@H](O)[C@@H](O)[C@H](N=C(N)N)[C@@H](O)[C@@H]3N=C(N)N)O[C@@H](C)[C@]2(O)C=O)O[C@@H](CO)[C@H](O)[C@H]1O [Streptomycin] + Cn1nnc(-c2ccc(-c3ccc(N4C[C@H](CO)OC4=O)cc3F)cn2)n1 [Tedizolid]
fitness
Details	partner 0.03125 µg/mL	partner 0.0625 µg/mL	partner 0.125 µg/mL	partner 0.25 µg/mL	partner 0.5 µg/mL
S. aureus Newman [2], first compound 1 µg/mL	–	0.928	0.767	–	–
S. pneumoniae D39V [3], first compound 2 µg/mL	0.896	0.952	0.811	–	–
S. pneumoniae D39V [3], first compound 4 µg/mL	0.898	0.886	0.788	0.739	0.336
S. pneumoniae D39V [3], first compound 8 µg/mL	0.893	0.912	0.829	0.732	0.353

fitness, S. pneumoniae D39V [3], one replicate
Details	partner 0.125 µg/mL	partner 0.25 µg/mL	partner 0.5 µg/mL
first compound 2 µg/mL	–	0.748	0.373
first compound 16 µg/mL	0.695	0.531	0.236

Details	Bliss interaction score
B. subtilis 168 [4]	0.189
S. aureus DSM 20231	0.155
S. aureus Newman [5]	-0.188
S. pneumoniae D39V [6]	-0.057
